{"source": "paper PMC9413568", "about": "“Application of COSMO-RS-DARE as a Tool for Testing Consistency of Solubility Data: Case of Coumarin in Neat Alcohols” (Molecules, 2022)", "key": {"[1]": {"experiment": "shake-flask solubility of coumarin in neat alcohols, spectrophotometric determination", "format": "physicochemical", "conditions": "mean ± SD, n = 3", "protocol": "This solution was then successfully diluted by transferring its fixed amounts to 10 mL volumetric flasks and adding methanol. The obtained series of solutions with decreasing coumarin concentrations was measured spectrophotometrically, and the absorbance values found at 310 nm wavelength were plotted against the corresponding concentration values. Three separate curves were prepared and then averaged, with the resulting linear equation being y = 42.346x + 0.0085. The curve can be characterized by high linearity, with the determination coefficient of R^2 = 0.9997. […] In this study, the shake-flask-type method of solubility determination was used. […] The prepared samples were incubated for 24 h at four different temperatures (25-40 °C with 5 °C intervals) using an ES-20/60 Orbital Shaker Incubator supplied by Biosan (Riga, Latvia). The temperature adjustment accuracy was 0.1 °C, and its variance during the daily cycle was ±0.5 °C. Moreover, the mixing of the samples at 60 rev/min was provided by the incubator. In the next step, the samples were filtered using a syringe with a PTFE filter with a […] pore size. All of the test tubes, syringes, and filters were preheated to the appropriate temperature to avoid the precipitation of dissolved coumarin. Finally, fixed amounts of the filtrate were transferred to test tubes, which were prefilled with a set amount of methanol, and samples prepared in this way were measured spectrophotometrically. The concentration of coumarin in the samples was determined through spectrophotometric measurements using an […] spectrophotometer from AOE Instruments (Shanghai, China). Spectra in the 190-700 nm wavelength range were recorded with a 1 nm resolution, and samples were diluted with methanol, which was also used as a reference. The absorbance values at 310 nm were used in conjunction with the calibration curve prepared earlier. Three samples were measured for each data point, and their concentrations were averaged and expressed as mole fractions."}, "[2]": {"parameters": "method as in PMID 18583357", "conditions": "dependence on pH; cited from earlier work"}}, "data": [{"smiles": "O=c1ccc2ccccc2o1", "note": "[coumarin, 2H-1-benzopyran-2-one]", "values": [{"measurement": "solubility expressed as molar fraction", "setting": "[1]; 1-butanol, 25 °C", "value": "16.95 ± 1.09", "unit": "molar fraction ×10^3"}, {"measurement": "solubility expressed as molar fraction", "setting": "[1]; 1-butanol, 30 °C", "value": "34.87 ± 1.34", "unit": "molar fraction ×10^3"}, {"measurement": "solubility expressed as molar fraction", "setting": "[1]; 1-butanol, 35 °C", "value": "60.64 ± 0.77", "unit": "molar fraction ×10^3"}, {"measurement": "solubility expressed as molar fraction", "setting": "[1]; 1-butanol, 40 °C", "value": "94.59 ± 2.12", "unit": "molar fraction ×10^3"}, {"measurement": "solubility expressed as molar fraction", "setting": "[1]; 1-octanol, 25 °C", "value": "19.18 ± 0.67", "unit": "molar fraction ×10^3"}, {"measurement": "solubility expressed as molar fraction", "setting": "[1]; 1-octanol, 30 °C", "value": "37.37 ± 1.24", "unit": "molar fraction ×10^3"}, {"measurement": "solubility expressed as molar fraction", "setting": "[1]; 1-octanol, 35 °C", "value": "67.23 ± 2.91", "unit": "molar fraction ×10^3"}, {"measurement": "solubility expressed as molar fraction", "setting": "[1]; 1-octanol, 40 °C", "value": "104.05 ± 0.71", "unit": "molar fraction ×10^3"}, {"measurement": "solubility expressed as molar fraction", "setting": "[1]; 1-pentanol, 25 °C", "value": "19.66 ± 0.28", "unit": "molar fraction ×10^3"}, {"measurement": "solubility expressed as molar fraction", "setting": "[1]; 1-pentanol, 30 °C", "value": "42.95 ± 1.59", "unit": "molar fraction ×10^3"}, {"measurement": "solubility expressed as molar fraction", "setting": "[1]; 1-pentanol, 35 °C", "value": "77.44 ± 0.55", "unit": "molar fraction ×10^3"}, {"measurement": "solubility expressed as molar fraction", "setting": "[1]; 1-pentanol, 40 °C", "value": "126.01 ± 7.64", "unit": "molar fraction ×10^3"}, {"measurement": "solubility expressed as molar fraction", "setting": "[1]; 1-propanol, 25 °C", "value": "41.02 ± 0.72", "unit": "molar fraction ×10^3"}, {"measurement": "solubility expressed as molar fraction", "setting": "[1]; 1-propanol, 30 °C", "value": "74.27 ± 2.42", "unit": "molar fraction ×10^3"}, {"measurement": "solubility expressed as molar fraction", "setting": "[1]; 1-propanol, 35 °C", "value": "121.65 ± 5.97", "unit": "molar fraction ×10^3"}, {"measurement": "solubility expressed as molar fraction", "setting": "[1]; 1-propanol, 40 °C", "value": "181.10 ± 4.99", "unit": "molar fraction ×10^3"}, {"measurement": "solubility expressed as molar fraction", "setting": "[1]; 2-propanol, 25 °C", "value": "30.17 ± 0.60", "unit": "molar fraction ×10^3"}, {"measurement": "solubility expressed as molar fraction", "setting": "[1]; 2-propanol, 30 °C", "value": "60.35 ± 1.81", "unit": "molar fraction ×10^3"}, {"measurement": "solubility expressed as molar fraction", "setting": "[1]; 2-propanol, 35 °C", "value": "101.22 ± 4.59", "unit": "molar fraction ×10^3"}, {"measurement": "solubility expressed as molar fraction", "setting": "[1]; 2-propanol, 40 °C", "value": "154.88 ± 5.76", "unit": "molar fraction ×10^3"}, {"measurement": "solubility expressed as molar fraction", "setting": "[1]; ethanol, 25 °C", "value": "49.43 ± 2.59", "unit": "molar fraction ×10^3"}, {"measurement": "solubility expressed as molar fraction", "setting": "[1]; ethanol, 30 °C", "value": "90.16 ± 5.57", "unit": "molar fraction ×10^3"}, {"measurement": "solubility expressed as molar fraction", "setting": "[1]; ethanol, 35 °C", "value": "142.45 ± 5.12", "unit": "molar fraction ×10^3"}, {"measurement": "solubility expressed as molar fraction", "setting": "[1]; ethanol, 40 °C", "value": "210.96 ± 6.24", "unit": "molar fraction ×10^3"}, {"measurement": "solubility expressed as molar fraction", "setting": "[1]; methanol, 25 °C", "value": "77.01 ± 4.68", "unit": "molar fraction ×10^3"}, {"measurement": "solubility expressed as molar fraction", "setting": "[1]; methanol, 30 °C", "value": "127.52 ± 5.07", "unit": "molar fraction ×10^3"}, {"measurement": "solubility expressed as molar fraction", "setting": "[1]; methanol, 35 °C", "value": "196.63 ± 7.30", "unit": "molar fraction ×10^3"}, {"measurement": "solubility expressed as molar fraction", "setting": "[1]; methanol, 40 °C", "value": "286.50 ± 6.20", "unit": "molar fraction ×10^3"}, {"measurement": "aqueous solubility", "setting": "[2]", "value": "decreases with the increase of pH"}]}]}
